Measured values taken from paper PMC9829398 (Plant Biotechnology Journal, 2022).

How the values were obtained:
[1] = test system: ROS in Col‐0 and fer‐4 roots; assay: ROS detection in plant roots (H2DCF-DA fluorescence); conditions: 5 μM for 15 min, vs DMSO and lapatinib
FRK1 = conditions: 5 μM for 24 h, confocal microscopy
[2] = target: EGFR‐associated tyrosine kinase; set-up: method as in Hsu et al., [1991]; conditions: ref Hsu et al., [1991]; cited from earlier work
CERK1 = assay: CERK1-CD kinase activity; assay type: biochemical, Arabidopsis
Description: Fig. S10. […] (a) Effects of FER inhibitors on the kinase activity of the Arabidopsis receptor kinase PEPR1 and CERK1 cytoplasmic domains (CDs). […] AT1G73080. […] AT3G21630. DMSO (0.05%; v/v) was used as a negative control. The data are shown as the means ± SDs (n = 4). The assay was repeated three times with similar results. ***, […]) Protein purification of PEPR1-CD and CERK1-CD. […] In (c and d), the data are presented as the means ± SDs of three biological replicates.

Aurora A = conditions: read-out: IC50 for Aurora A; ref D'Alise et al., [2008]; cited from earlier work
Aurora B = conditions: read-out: IC50 for Aurora B; ref D'Alise et al., [2008]; cited from earlier work
Aurora C = conditions: read-out: IC50 for Aurora C; ref D'Alise et al., [2008]; cited from earlier work

In the case of `O=C(O)c1cc(N(Cc2ccccc2O)Cc2cc(O)ccc2O)ccc1O` [Lavendustin A], the “Production of ROS in Col-0 roots” value [1] is listed as “significantly increased the production of ROS”, the “Expression of FRK1 in roots” value (FRK1) is listed as “did not affect the expression levels” and the “IC50 for EGFR-associated tyrosine kinase” value [2] is listed as “Lavendustin A (RG‐14355), isolated from Streptomyces Griseolavendus, is a potent, specific and ATP‐competitive inhibitor of tyrosine kinase, with an IC50 of 11 ng/mL for EGFR‐associated tyrosine kinase (Hsu et al., [1991])”. For the same compound, the “Effect on CERK1 kinase activity” value (CERK1) was “did not affect the kinase activity”.

In the case of `c1nc2nc(Nc3ccc(N4CCOCC4)cc3)nc(NC3CCCCC3)c2[nH]1` [Reversine], the IC50 (Aurora A) is given as […], the “Production of ROS in Col-0 roots” value [1] is given as “significantly increased the production of ROS” and the “Expression of FRK1 in roots” value (FRK1) is given as “did not affect the expression levels”. For the same compound, the IC50 (Aurora B) was […], the IC50 (Aurora C) was 400 nM and the “Effect on CERK1 kinase activity” value (CERK1) was “did not affect the kinase activity”.
